Measurements from patent publication US6958321B2, “Isolation, characterization, cloning and use of a mushroom lectin” (The Regents of the University of Michigan, priority 2001, dated 2005).

Legend:
[1] = molecular target: T1, Marasmius oreades lectin (MOA, cMOA) (Marasmius oreades, UniProt Q8X123); assay: Isothermal titration calorimetry, MOA of Example 1 (proteolyzed, clipped form, cMOA); type: binding; conditions: for Kd / TΔS / −ΔG / −ΔH / Ka / ligand binding: isothermal titration calorimetry; for Ka, cMOA: proteolyzed (clipped) native lectin, Table 6
T1 sequence (Q8X123 1-293): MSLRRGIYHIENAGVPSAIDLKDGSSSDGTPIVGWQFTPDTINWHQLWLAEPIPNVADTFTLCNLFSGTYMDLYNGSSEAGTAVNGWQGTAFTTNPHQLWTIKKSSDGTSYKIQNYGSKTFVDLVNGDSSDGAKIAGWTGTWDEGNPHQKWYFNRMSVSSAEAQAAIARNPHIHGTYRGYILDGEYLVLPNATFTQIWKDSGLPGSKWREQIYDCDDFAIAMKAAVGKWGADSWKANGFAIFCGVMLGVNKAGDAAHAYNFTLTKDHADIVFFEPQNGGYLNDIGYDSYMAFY

MOA = assay: Sugar ligand binding to MOA (hemagglutination inhibition, hapten inhibition of precipitation, calorimetry); design: species or system Marasmius oreades; conditions: binding to MOA in solution
Experimental: All three methods gave approximately the same results, with the calorimetric data being the most precise.
Being a blood type B agglutinin, MOA was assayed primarily against D-galactosyl-terminated sugars and oligosaccharides. […] Methyl α-galactopyranoside was similarly very poor. […] While not limited to any particular mechanism, and with the understanding that knowledge of the underlying mechanism is not required for the practice of the invention, it is believed that recognition of the L-fucosyl moiety is the reason for limited agglutination of human O erythrocytes and a weak precipitin curve with blood group H substance.

recombinant MOA (rMOA) = molecular target: T2, recombinant MOA (rMOA) (Marasmius oreades, UniProt Q8X123); assay: Isothermal titration calorimetry, recombinant MOA (rMOA); type: binding; conditions: read-out: Ka, rMOA (converted)
T2 sequence (Q8X123 1-293): T1 sequence (Q8X123 1-293)
Experimental: (§1) As this volume underfills the titration cell, variable volume calculations were applied, using the Bindworks software installed in the instrument. […] Finally, the trisaccharide L-Fucα1,2Ga1β1,4G1c (fucosyllactose), related to the blood group H trisaccbaride, was assayed. […] While not to be limited to any particular mechanism, it is believed that this may be the reason that MOA recognizes and agglutinates human O erythrocytes to a limited extent, and gives a weak precipitin curve with blood group H substance.
Expression and characterization of recombinant MOA: A full-length PCR product incorporating NdeI and EcoRI into its forward and reverse primers, respectively, was cloned into PCR Blunt II using topoisomerase (Invitrogen) and subsequently shuttled into an IPTG inducible pT7 expression vector (MOApT7LO). Recombinant MOA was expressed in a Nova Blue DE3 strain of E. coli. Expressing bacteria were collected by centrifugation and resuspended in a lysis buffer consisting of 50 mM NaH2PO4, 300 mM NaCl, 10 mM imidizole, 10mM 2-mercaptoethanol, 1 mM phenylmethylsulfonyl fluoride, 1% NP-40, and a protease inhibitor cocktail. The extract was twice run through a french press. The insoluble fraction was removed by centrifugation (10,000×g, 15 min).
(§2) Purification of recombinant MOA and native intact MOA-Recombinant MOA was purified from the soluble fraction by absorption on a column of melibiose-Sepharose and elution by lactose. Further purification was carried out on an affinity column of Synsorb B. Except for the diaminopropane elution, all affinity purifications were carried out in PBS, pH 7.2, containing 1.25 mM EDTA. After purification, lectin solutions were dialyzed against distilled water and lyophilized. […] Intact native MOA was prepared with a purification procedure (Example 2) that utilized a protease inhibitor cocktail (product P8215, Sigma, St. Louis, Mo.) which was added at the level of 0.1 ml/100 ml extract buffer (instead of phenylmethylsulfonyl fluoride), all buffers lacked Ca^++ and contained 1.25 mM EDTA, and the initial extraction and ammonium sulfate fractionations were carried out under an atmosphere of argon.
(§3) Binding constants of several relevant oligosaccharides to recombinant and intact native MOA were determined calorimetrically.

intact native MOA (nMOA) = molecular target: T3, intact native MOA (nMOA) (Marasmius oreades, UniProt Q8X123); assay: Isothermal titration calorimetry, intact native MOA (nMOA); type: binding; conditions: read-out: Ka, nMOA (converted)
T3 sequence (Q8X123 1-293): T1 sequence (Q8X123 1-293)
Experimental: as §1, §2, §3

immobilized MOA = assay: Binding to MOA-Sepharose 4B affinity column; design: species or system Marasmius oreades; conditions: washed with PBS, eluted with 20 mM diaminopropane
From the text: Further insight into the carbohydrate specificity of MOA was obtained by using immobilized MOA. Immobilization of MOA on a variety of supports is contemplated. In one embodiment, MOA is immobilized on a matrix that can be used in an affinity column (see below). In some embodiments, the matrix comprises Sepharose 4B beads. In some Embodiments, the MOA-conjugated Sepharose 4B beads are packed in a column for binding and affinity isolation and purification studies. Briefly, the MOA-Sepharose column is loaded with glycan, glycoconjugate or serum sample to be tested, then washed with an appropriate buffer (including but not limited to PBS). Bound components are eluted with a suitable elution buffer (including but not limited to 1,3-diaminopropane in NaCl), and the collected fractions are analyzed for the presence of protein or glycan (see Example 6 below). The fractions containing the bound components (eluted as described herein) can be pooled and concentrated.
MOA was immobilized on cyanogen bromide-activated Sepharose 4B as follows. 1.5 g of cyanogen bromide-activated Sepharose 4B was allowed to swell in 100 ml of 1 mM HCl solution for 30 min. The supernatant was removed and the swollen beads (6 ml) were filtered on a sintered funnel, washed several times with 100 ml of 1 mM HCl and finally with 20 ml of 0.1 M sodium bicarbonate buffer, pH 8.3, containing 0.5 M sodium chloride. The beads were quickly transferred to a plastic bottle containing 16.2 mg MOA in the same buffer (10 ml) containing 0.2 M lactose. The plastic bottle was shaken at room temperature for 6 hr and at 4° C. overnight. The beads were filtered on a sintered glass funnel, washed with the coupling buffer, and then shaken in 1 M ethanolamine (12 ml) at room temperature for 2.5 hr to cap all of the unreacted iminocarbonate groups. The beads were filtered, washed alternately with the coupling buffer then sodium acetate buffer (0.1 M, pH 4.0 containing 0.5 M NaCl) four times. A column (1×7 cm) packed with the beads was finally washed with PBS containing 0.04% sodium azide. The beads contained 2.3 mg MOA per ml Sepharose 4B, based on MOA remaining in solution.
In order to assess the binding of various glycans, glycoconjugates and serum samples to MOA-Sepharose, the following general procedure was used. The MOA-Sepharose column was loaded with glycan, glycoconjugate or serum sample (0.6-5 ml) and washed with PBS (15 ml). The bound components were eluted with 20 mM 1,3-diaminopropane in 0.15 M NaCl (15 ml). The fractions collected (1 ml) were neutralized with 1 M phosphoric acid (approximately 16 μl), and analyzed by either absorbance at 280 nm for protein, or by phenol-sulfuric acid assay, as described by Dubois et al. [Anal. Chem. 28: 350 (1956)] for the glycan. The column was finally washed thoroughly with PBS. The fractions containing the bound components were pooled and concentrated by Amicon ultrafiltration (Millipore Corp., Bedford, Mass.) using a membrane (YM10) of 10,000 molecular weight cut-off.

Compound | Kd [1] | TΔS [1] | −ΔG [1] | −ΔH [1] | Ka ([1]; Table 3) | ligand binding (MOA) | Ka [1] | Kd (recombinant MOA (rMOA)) | other results
CO[C@H]1O[C@H](CO)[C@H](O)[C@H](O)[C@H]1O [Me-α-Gal, Methyl α-galactopyranoside] | 8130 µM | 12.8 kJ/mol | 11.8 kJ/mol | 24.6 kJ/mol | 0.123 10^3 M^−1 | very poor | – | – | –
OC[C@H]1O[C@@H](O[C@H]2[C@H](O)[C@@H](O)C(O)O[C@@H]2CO)[C@H](O)[C@@H](O)[C@H]1O (some centres unmarked) [Lactose] | 5080 µM | 24.1 kJ/mol | 13 kJ/mol | 37.1 kJ/mol | 0.197 10^3 M^−1 | very poor ligands | 185 M⁻¹ | – | –
OC[C@H]1O[C@H](O[C@H]2[C@@H](O)[C@@H](CO)OC(O)[C@@H]2O)[C@H](O)[C@@H](O)[C@H]1O (some centres unmarked) [Galα1,3Gal] | 182 µM | 62.8 kJ/mol | 21.1 kJ/mol | 84.1 kJ/mol | 5.48 10^3 M^−1 | excellent ligand | 6000 M⁻¹ | 37.5 µM | affinity constant relative to that for Meα-Gal [1]: 44 fold; ligand binding ([1]; Table 3): excellent ligand; Ka, cMOA [1]: 5.48 10^3 M^−1; Kd (intact native MOA (nMOA)): 36.6 µM
C[C@@H]1O[C@@H](O[C@H]2C(O)O[C@H](CO)[C@H](O)[C@@H]2O[C@H]2O[C@H](CO)[C@H](O)[C@H](O)[C@H]2O)[C@@H](O)[C@H](O)[C@@H]1O (some centres unmarked) [B trisaccharide, Galα1,3[Fucα1,2]Gal] | 36 µM | 61.1 kJ/mol | 25.1 kJ/mol | 86.2 kJ/mol | 27.8 10^3 M^−1 | – | 36000 M⁻¹ | 21.7 µM | enhancement of affinity to MOA relative to Galα1,3Gal ([1]; addition of an L-fucosyl group): 4 fold; Ka, cMOA [1]: 27.8 10^3 M^−1
OC[C@H]1O[C@H](OCC2O[C@@H](O)[C@H](O)[C@@H](O)[C@@H]2O)[C@H](O)[C@@H](O)[C@H]1O (stereo partly drawn) [melibiose, Ga1α1,6G1c] | – | – | – | – | – | very poor ligands | – | – | –
Ga1α1,6Ga1 | – | – | – | – | – | bound poorly or not at all | – | – | ligand binding ([1]; Table 3): bound poorly or not at all
asialofetuin: asialofetuin, with terminal Galβ1,4GlcNAc residues | – | – | – | – | – | – | – | – | binding to MOA-Sepharose column (immobilized MOA): passed through the column
OC[C@H]1O[C@H](O[C@H]2[C@@H](O)[C@@H](CO)O[C@@H](O[C@H]3[C@H](O)[C@@H](O)C(O)O[C@@H]3CO)[C@@H]2O)[C@H](O)[C@@H](O)[C@H]1O (some centres unmarked) [Galα1,3Galβ1,4Glc] | – | – | – | – | – | – | – | 75.8 µM | Kd (intact native MOA (nMOA)): 59.9 µM
OCC1OC(OC2C(CO)OC(O)C(O)C2O)C(O)C(O)C1O (stereo not drawn) [Galβ1,4Gal, G1α1,4Ga1] | > 10000 µM | – | – | – | <0.1 10^3 M^−1 | bound poorly or not at all | – | – | ligand binding ([1]; Table 3): bound poorly or not at all
CC1OC(OC2C(OC3C(CO)OC(O)C(O)C3O)OC(CO)C(O)C2O)C(O)C(O)C1O [2′ Fucosyllactose, L-Fucα1,2Ga1β1,4G1c] | 1830 µM | 26.8 kJ/mol | 15.5 kJ/mol | 42.3 kJ/mol | .548 10^3 M^−1 | low but measurable binding | 548 M⁻¹ | – | –
degalactosylated bovine thyroglobulin: α-galactosidase-digested bovine thyroglobulin | – | – | – | – | – | – | – | – | binding to MOA-Sepharose column (immobilized MOA): passed through the column
CC(=O)N[C@H]1C(O)O[C@H](CO)[C@@H](O[C@@H]2O[C@H](CO)[C@H](O)[C@H](O)[C@H]2O)[C@@H]1O (some centres unmarked) [LacNAc, N-acetyllactosamine] | 3450 µM | 45.6 kJ/mol | 13.9 kJ/mol | 59.5 kJ/mol | 0.290 10^3 M^−1 | very poor ligands | – | 1490 µM | Ka, cMOA [1]: 0.29 10^3 M^−1; Kd (intact native MOA (nMOA)): 2630 µM
CC(=O)N[C@H]1C(O)O[C@H](CO)[C@@H](O[C@@H]2O[C@H](CO)[C@H](O)[C@H](O[C@H]3O[C@H](CO)[C@H](O)[C@H](O)[C@H]3O)[C@H]2O)[C@@H]1O (some centres unmarked) [Linear B2 trisacc., Galα1,3Galβ1,4GlcNAc] | 103 µM | 63.6 kJ/mol | 22.6 kJ/mol | 86.2 kJ/mol | 9.753 10^3 M^−1 | – | 9700 M⁻¹ | 33 µM | increase of binding relative to Galα1,3Gal ([1]; addition of a GlcNAc group to the reducing end): approximately 50%; Ka, cMOA [1]: 9.75 10^3 M^−1; Kd (intact native MOA (nMOA)): 25.4 µM
OCC1OC(OC2C(O)OC(CO)C(O)C2O)C(O)C(O)C1O (stereo not drawn) [Galβ1,2Gal, Ga1α1,2Ga1] | > 10000 µM | – | – | – | <0.1 10^3 M^−1 | bound poorly or not at all | – | – | ligand binding ([1]; Table 3): bound poorly or not at all
CO[C@@H]1O[C@H](CO)[C@@H](O)[C@H](O[C@@H]2O[C@H](CO)[C@H](O)[C@H](O)[C@H]2O)[C@H]1NC(C)=O [LactoNbioseβMe] | 4670 µM | 14.6 kJ/mol | 13.2 kJ/mol | 27.8 kJ/mol | 0.214 10^3 M^−1 | – | – | – | –
OC[C@H]1O[C@@H](OC[C@H]2OC(O)[C@H](O)[C@@H](O)[C@H]2O)[C@H](O)[C@@H](O)[C@H]1O (some centres unmarked) [Galβ1,6Gal] | – | 11.9 kJ/mol | 13.7 kJ/mol | 25.6 kJ/mol | – | – | – | – | –
